Laboratory results: the Kinase Knowledgebase extract (Sharma et al. 2016)

These compounds were tested against ROCK2 (human) (UniProt O75116) (assay: Inhibition of ROCK2 Kinase Activity).
ROCK2 (human), sequence (O75116 whole entry, looked up): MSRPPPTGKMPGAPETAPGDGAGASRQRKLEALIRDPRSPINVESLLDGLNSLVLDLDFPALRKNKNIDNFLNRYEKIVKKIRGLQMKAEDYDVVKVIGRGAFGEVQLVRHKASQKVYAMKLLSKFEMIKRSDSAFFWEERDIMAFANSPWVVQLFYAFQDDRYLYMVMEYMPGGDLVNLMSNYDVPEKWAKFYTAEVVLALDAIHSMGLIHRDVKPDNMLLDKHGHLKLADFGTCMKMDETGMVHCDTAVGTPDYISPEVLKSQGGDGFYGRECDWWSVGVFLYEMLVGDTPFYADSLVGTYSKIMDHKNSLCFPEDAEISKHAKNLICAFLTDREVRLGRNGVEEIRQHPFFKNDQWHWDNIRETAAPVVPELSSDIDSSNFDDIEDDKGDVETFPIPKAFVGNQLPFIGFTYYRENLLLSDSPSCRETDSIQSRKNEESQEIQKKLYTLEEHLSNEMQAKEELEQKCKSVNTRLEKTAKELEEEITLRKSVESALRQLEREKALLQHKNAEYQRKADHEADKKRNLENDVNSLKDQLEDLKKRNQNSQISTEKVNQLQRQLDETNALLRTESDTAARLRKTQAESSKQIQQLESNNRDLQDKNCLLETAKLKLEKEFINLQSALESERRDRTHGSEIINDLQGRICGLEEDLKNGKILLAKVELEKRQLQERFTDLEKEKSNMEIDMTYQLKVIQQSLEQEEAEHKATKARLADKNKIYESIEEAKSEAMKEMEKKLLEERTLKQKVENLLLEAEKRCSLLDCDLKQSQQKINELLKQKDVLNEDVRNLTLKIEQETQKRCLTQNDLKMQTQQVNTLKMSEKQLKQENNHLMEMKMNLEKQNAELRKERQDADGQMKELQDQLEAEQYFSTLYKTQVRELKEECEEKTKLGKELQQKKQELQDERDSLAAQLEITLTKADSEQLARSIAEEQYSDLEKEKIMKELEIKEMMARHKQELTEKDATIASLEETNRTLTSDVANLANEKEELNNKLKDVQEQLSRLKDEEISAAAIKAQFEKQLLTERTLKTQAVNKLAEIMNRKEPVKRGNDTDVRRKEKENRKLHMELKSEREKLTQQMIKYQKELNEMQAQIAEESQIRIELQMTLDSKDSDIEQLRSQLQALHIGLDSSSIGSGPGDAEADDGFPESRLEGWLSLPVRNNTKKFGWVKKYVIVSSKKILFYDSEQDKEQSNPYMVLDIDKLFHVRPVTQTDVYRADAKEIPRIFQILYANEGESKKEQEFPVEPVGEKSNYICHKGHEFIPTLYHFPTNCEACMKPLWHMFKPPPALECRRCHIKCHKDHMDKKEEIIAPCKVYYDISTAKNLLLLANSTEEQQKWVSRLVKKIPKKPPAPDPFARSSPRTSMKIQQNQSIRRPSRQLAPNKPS

| Structure (SMILES) | IC50 [nM] |
| --- | --- |
| CN(CC(N)c1ccc(C(=O)Nc2ccncc2)cc1)C(=O)C(C)(C)c1ccc(F)cc1 (stereo unspecified) | 500 to 5000 |
| CC(C)(C)ON=Cc1cccc(C(=O)NCC(N)c2ccc(C(=O)Nc3ccncc3)cc2)c1 (stereo unspecified) | 500 to 5000 |
| NC(CNC(=O)C1CCSc2ccccc21)c1ccc(C(=O)Nc2ccncc2)cc1 (stereo unspecified) | 50 to 500 |
| NC(CC(=O)NC1CCCc2ccccc21)c1ccc(C(=O)Nc2ccncc2)cc1 (stereo unspecified) | 50 to 500 |
| N[C@@H](CNC(=O)C1(c2ccc(Cl)cc2)CC1)c1ccc(C(=O)Nc2ccncc2)cc1 | 500 to 5000 |
| CCC(C)C(=O)NCC(N)c1ccc(C(=O)Nc2ccncc2)cc1 (stereo unspecified) | 500 to 5000 |
| CN(CC(N)c1ccc(C(=O)Nc2ccncc2)cc1)C(=O)C1(c2ccc(Cl)cc2Cl)CC1 (stereo unspecified) | 500 to 5000 |
| NC(c1ccc(C(=O)Nc2ccncc2)cc1)C1CCCN1C(=O)Cc1cc(F)ccc1F (stereo unspecified) | 500 to 5000 |
| NC(CNC(=O)c1ccccc1Nc1ccccc1)c1ccc(C(=O)Nc2ccncc2)cc1 (stereo unspecified) | 500 to 5000 |
| NC(CC(=O)NC1CCCCC1)c1ccc(C(=O)Nc2ccncc2)cc1 (stereo unspecified) | 50 to 500 |
| NC(CNC(=O)C1CC1)c1ccc(C(=O)Nc2ccncc2)cc1 (stereo unspecified) | 500 to 5000 |
| NC(CC(=O)NC1c2ccccc2-c2ccccc21)c1ccc(C(=O)Nc2ccncc2)cc1 (stereo unspecified) | 50 to 500 |
| CN(CC(N)c1ccc(C(=O)Nc2ccncc2)cc1)C(=O)Cc1ccc(O)c([N+](=O)[O-])c1 (stereo unspecified) | 50 to 500 |
| NC(CNC(=O)C1Cc2ccccc21)c1ccc(C(=O)Nc2ccncc2)cc1 (stereo unspecified) | 50 to 500 |
| NC(c1ccc(C(=O)Nc2ccncc2)cc1)C1CCCN1C(=O)C1(c2ccc(F)cc2)CCCC1 (stereo unspecified) | 500 to 5000 |
| NC(CNC(=O)c1ccc(-c2ccccc2)cc1)c1ccc(C(=O)Nc2ccncc2)cc1 (stereo unspecified) | 500 to 5000 |
| NC(CNC(=O)CC1C=CCC1)c1ccc(C(=O)Nc2ccncc2)cc1 (stereo unspecified) | 50 to 500 |
| CN(CC(N)c1ccc(C(=O)Nc2ccncc2)cc1)C(=O)C1(c2ccc(F)cc2F)CC1 (stereo unspecified) | 500 to 5000 |
| NC(CNC(=O)NCc1ccccc1)c1ccc(C(=O)Nc2ccncc2)cc1 (stereo unspecified) | 50 to 500 |
| NC(CC(=O)NC1CCN(Cc2ccccc2)CC1)c1ccc(C(=O)Nc2ccncc2)cc1 (stereo unspecified) | 50 to 500 |
| CC(C)C(C(=O)N1CCCC1C(N)c1ccc(C(=O)Nc2ccncc2)cc1)c1ccc(Cl)cc1 (stereo unspecified) | 500 to 5000 |
| CC(C)C(C)NC(=O)CC(N)c1ccc(C(=O)Nc2ccncc2)cc1 (stereo unspecified) | 50 to 500 |

| Structure (SMILES) | IC50 [nM] |
| --- | --- |
| COc1ccc(CC(=O)N(C)CC(N)c2ccc(C(=O)Nc3ccncc3)cc2)c(OC)c1 (stereo unspecified) | 50 to 500 |
| CN(CC(N)c1ccc(C(=O)Nc2ccncc2)cc1)C(=O)C1(c2ccc(Cl)cc2)CC1 (stereo unspecified) | 500 to 5000 |
| NC(CNC(=O)c1ccnc2ccccc12)c1ccc(C(=O)Nc2ccncc2)cc1 (stereo unspecified) | 500 to 5000 |
| NC(c1ccc(C(=O)Nc2ccncc2)cc1)C1CCCN1C(=O)C1(c2ccc(F)c(F)c2)CCC1 (stereo unspecified) | 500 to 5000 |
| NC(CNC(=O)CCC1CCCC1)c1ccc(C(=O)Nc2ccncc2)cc1 (stereo unspecified) | 50 to 500 |
| N#Cc1ccc(C(=O)NCC(N)c2ccc(C(=O)Nc3ccncc3)cc2)cc1 (stereo unspecified) | 500 to 5000 |
| NC(c1ccc(C(=O)Nc2ccncc2)cc1)C1CCCN1C(=O)Cc1ccc(Cl)c(Cl)c1 (stereo unspecified) | 500 to 5000 |
| NC(CNC(=O)c1ccoc1)c1ccc(C(=O)Nc2ccncc2)cc1 (stereo unspecified) | 50 to 500 |
| CC(C)(C(=S)NCC(N)c1ccc(C(=O)Nc2ccncc2)cc1)c1ccc(F)cc1 (stereo unspecified) | 50 to 500 |
| NC(c1ccc(C(=O)Nc2ccncc2)cc1)C1CCCN1C(=O)C1Cc2ccccc21 (stereo unspecified) | 50 to 500 |
| NC(c1ccc(C(=O)Nc2ccncc2)cc1)C1CCCN1C(=O)C1CCOc2ccc(Cl)cc21 (stereo unspecified) | 500 to 5000 |
| NC(CNC(=O)c1cc2cc(Cl)ccc2o1)c1ccc(C(=O)Nc2ccncc2)cc1 (stereo unspecified) | 500 to 5000 |
| CN(CCO)C(=O)CC(N)c1ccc(C(=O)Nc2ccncc2)cc1 (stereo unspecified) | 50 to 500 |
| CN(CC(N)c1ccc(C(=O)Nc2ccncc2)cc1)C(=O)C1(c2ccc(F)c(F)c2)CCCC1 (stereo unspecified) | 500 to 5000 |
| CN(CC(N)c1ccc(C(=O)Nc2ccncc2)cc1)C(=O)C1(c2ccc(Cl)c(Cl)c2)CCC1 (stereo unspecified) | 500 to 5000 |
| NC(c1ccc(C(=O)Nc2ccncc2)cc1)C1CCCN1C(=O)C1CCSc2ccc(F)cc21 (stereo unspecified) | 500 to 5000 |
| CC1CC1C(=O)NCC(N)c1ccc(C(=O)Nc2ccncc2)cc1 (stereo unspecified) | 500 to 5000 |
| NC(CC(=O)NCCc1ccc(Oc2ccccc2)cc1)c1ccc(C(=O)Nc2ccncc2)cc1 (stereo unspecified) | 50 to 500 |
| CN(CC(N)c1ccc(C(=O)Nc2ccncc2)cc1)C(=O)C1CCc2ccccc21 (stereo unspecified) | 500 to 5000 |
| NC(CNC(=O)c1ccncc1)c1ccc(C(=O)Nc2ccncc2)cc1 (stereo unspecified) | 500 to 5000 |
| CN(CC(N)c1ccc(C(=O)Nc2ccncc2)cc1)C(=O)C1(c2ccsc2)CC1 (stereo unspecified) | 500 to 5000 |
| NC(CC(=O)NCc1cc(C(F)(F)F)cc(C(F)(F)F)c1)c1ccc(C(=O)Nc2ccncc2)cc1 (stereo unspecified) | 50 to 500 |

| Structure (SMILES) | IC50 [nM] |
| --- | --- |
| NC(c1ccc(C(=O)Nc2ccncc2)cc1)C1CCCN1C(=O)C1CCCCc2ccc(F)cc21 (stereo unspecified) | 5000 to 50000 |
| NC(c1ccc(C(=O)Nc2ccncc2)cc1)C1CCCN1C(=O)Cc1ccc2ccccc2c1 (stereo unspecified) | 500 to 5000 |
| NC(CC(=O)NNC(=O)c1ccco1)c1ccc(C(=O)Nc2ccncc2)cc1 (stereo unspecified) | 50 to 500 |
| NC(CNC(=O)CNC(=O)c1ccccc1)c1ccc(C(=O)Nc2ccncc2)cc1 (stereo unspecified) | 50 to 500 |
| CN(CC(N)c1ccc(C(=O)Nc2ccncc2)cc1)C(=O)C(C)(C)c1cccs1 (stereo unspecified) | 500 to 5000 |
| CC1CCC(NC(=O)CC(N)c2ccc(C(=O)Nc3ccncc3)cc2)CC1 (stereo unspecified) | 50 to 500 |
| NC(CNC(=O)Cc1ccc2ccccc2c1)c1ccc(C(=O)Nc2ccncc2)cc1 (stereo unspecified) | 500 to 5000 |
| N#CCC(=O)NCC(N)c1ccc(C(=O)Nc2ccncc2)cc1 (stereo unspecified) | 50 to 500 |
| COC(=O)C(C)NC(=O)CC(N)c1ccc(C(=O)Nc2ccncc2)cc1 (stereo unspecified) | 50 to 500 |
| NC(CNC(=S)Nc1ccccc1)c1ccc(C(=O)Nc2ccncc2)cc1 (stereo unspecified) | 50 to 500 |
| CC(C)(C)ON=Cc1ccc(C(=O)NCC(N)c2ccc(C(=O)Nc3ccncc3)cc2)cc1 (stereo unspecified) | 500 to 5000 |
| N[C@H](CNC(=O)C1(c2ccc(Cl)cc2)CC1)c1ccc(C(=O)Nc2ccncc2)cc1 | 50 to 500 |
| N#CCCN(C(=O)CC(N)c1ccc(C(=O)Nc2ccncc2)cc1)C1CC1 (stereo unspecified) | 500 to 5000 |
| NC(c1ccc(C(=O)Nc2ccncc2)cc1)C1CCCN1C(=O)Cc1c(F)cccc1F (stereo unspecified) | 500 to 5000 |
| CN(CC(N)c1ccc(C(=O)Nc2ccncc2)cc1)C(=O)C1CCCc2ccccc21 (stereo unspecified) | 500 to 5000 |
| CN(CC(N)c1ccc(C(=O)Nc2ccncc2)cc1)C(=O)C1(c2ccc(Cl)c(Cl)c2)CC1 (stereo unspecified) | 500 to 5000 |
| CN(CC(N)c1ccc(C(=O)Nc2ccncc2)cc1)C(=O)Cc1ccccc1 (stereo unspecified) | 500 to 5000 |
| NC(CNC(=O)COc1ccc(F)cc1)c1ccc(C(=O)Nc2ccncc2)cc1 (stereo unspecified) | 50 to 500 |
| NC(CNC(=O)Cc1ccc2c(c1)OCO2)c1ccc(C(=O)Nc2ccncc2)cc1 (stereo unspecified) | 50 to 500 |
| CCN(Cc1ccc([N+](=O)[O-])cc1)C(=O)CC(N)c1ccc(C(=O)Nc2ccncc2)cc1 (stereo unspecified) | 50 to 500 |
| NC(c1ccc(C(=O)Nc2ccncc2)cc1)C1CCCN1C(=O)C1(c2ccc(Cl)cc2)CC1 (stereo unspecified) | 500 to 5000 |

Other lines, results leading:

| IC50 [nM] | Structure (SMILES) |
| --- | --- |
| 50 to 500 | NC(CC(=O)NCc1ccc(OC(F)(F)F)cc1)c1ccc(C(=O)Nc2ccncc2)cc1 (stereo unspecified) |
| 50 to 500 | N[C@H](CC(=O)N[C@H]1COc2ccccc21)c1ccc(C(=O)Nc2ccncc2)cc1 |
| 50 to 500 | Cc1ccc(CNC(=O)CC(N)c2ccc(C(=O)Nc3ccncc3)cc2)cc1 (stereo unspecified) |
| 50 to 500 | CC(CNC(=O)CC(N)c1ccc(C(=O)Nc2ccncc2)cc1)c1ccccc1 (stereo unspecified) |
| 50 to 500 | NC(CC(=O)NCc1cccc(C(F)(F)F)c1)c1ccc(C(=O)Nc2ccncc2)cc1 (stereo unspecified) |
| 50 to 500 | COc1cccc(CC(=O)NCC(N)c2ccc(C(=O)Nc3ccncc3)cc2)c1 (stereo unspecified) |
| 50 to 500 | COc1ccc(NC(=O)CC(N)c2ccc(C(=O)Nc3ccncc3)cc2)cc1 (stereo unspecified) |
| 500 to 5000 | CN(CC(N)c1ccc(C(=O)Nc2ccncc2)cc1)C(=O)Cc1ccc(Cl)c(Cl)c1 (stereo unspecified) |
| 50 to 500 | Cc1cccc(Cl)c1CNC(=O)CC(N)c1ccc(C(=O)Nc2ccncc2)cc1 (stereo unspecified) |
| 50 to 500 | NC(CC(=O)NCCc1cccc(Cl)c1)c1ccc(C(=O)Nc2ccncc2)cc1 (stereo unspecified) |
| 50 to 500 | NC(CC(=O)NCc1ccc(C(F)(F)F)cc1)c1ccc(C(=O)Nc2ccncc2)cc1 (stereo unspecified) |
| 50 to 500 | NC(CC(=O)NCc1ccco1)c1ccc(C(=O)Nc2ccncc2)cc1 (stereo unspecified) |
| 50 to 500 | NC(CNC(=O)Cc1cccc(Cl)c1)c1ccc(C(=O)Nc2ccncc2)cc1 (stereo unspecified) |
| 50 to 500 | CC(C)(C(=O)NC[C@@H](N)c1ccc(C(=O)Nc2ccncc2)cc1)c1ccc(Cl)cc1 |
| 500 to 5000 | COc1cccc(C(=O)NCC(N)c2ccc(C(=O)Nc3ccncc3)cc2)c1 (stereo unspecified) |
| 50 to 500 | CC(C)(C(=O)NCC(N)c1ccc(C(=O)Nc2ccncc2)cc1)c1ccc(Cl)c(Cl)c1 (stereo unspecified) |
| 50 to 500 | CC(CNC(=O)CC(N)c1ccc(C(=O)Nc2ccncc2)cc1)c1ccc(Cl)cc1 (stereo unspecified) |
| 50 to 500 | NC(CC(=O)Nc1ccccc1)c1ccc(C(=O)Nc2ccncc2)cc1 (stereo unspecified) |

| IC50 [nM] | Structure (SMILES) |
| --- | --- |
| 50 to 500 | COc1ccc(CNC(=O)CC(N)c2ccc(C(=O)Nc3ccncc3)cc2)cc1OC (stereo unspecified) |
| 50 to 500 | COc1ccc(OC)c(CNC(=O)CC(N)c2ccc(C(=O)Nc3ccncc3)cc2)c1 (stereo unspecified) |
| 50 to 500 | NC(CC(=O)NCc1cccc(F)c1)c1ccc(C(=O)Nc2ccncc2)cc1 (stereo unspecified) |
| 50 to 500 | CC(NC(=O)CC(N)c1ccc(C(=O)Nc2ccncc2)cc1)c1cccc2ccccc12 (stereo unspecified) |
| 50 to 500 | NC(CC(=O)NCCc1ccc(Cl)c(Cl)c1)c1ccc(C(=O)Nc2ccncc2)cc1 (stereo unspecified) |
| 50 to 500 | NC(CC(=O)NCCc1ccc(Cl)cc1Cl)c1ccc(C(=O)Nc2ccncc2)cc1 (stereo unspecified) |
| 500 to 5000 | COc1ccccc1CC(=O)NCC(N)c1ccc(C(=O)Nc2ccncc2)cc1 (stereo unspecified) |
| 50 to 500 | COc1ccc(CCNC(=O)CC(N)c2ccc(C(=O)Nc3ccncc3)cc2)cc1 (stereo unspecified) |
| 500 to 5000 | NC(CNC(=O)c1cccc(Cl)c1)c1ccc(C(=O)Nc2ccncc2)cc1 (stereo unspecified) |
| 50 to 500 | NC(CNC(=O)c1cccs1)c1ccc(C(=O)Nc2ccncc2)cc1 (stereo unspecified) |
| 50 to 500 | COc1cccc(NC(=O)NCC(N)c2ccc(C(=O)Nc3ccncc3)cc2)c1 (stereo unspecified) |
| 50 to 500 | NC(CC(=O)N[C@@H]1CCc2ccccc21)c1ccc(C(=O)Nc2ccncc2)cc1 (stereo partly specified) |
| 500 to 5000 | CN(CC(N)c1ccc(C(=O)Nc2ccncc2)cc1)C(=O)Cc1ccc(Cl)cc1 (stereo unspecified) |
| 500 to 5000 | CC(C)CC(=O)NCC(N)c1ccc(C(=O)Nc2ccncc2)cc1 (stereo unspecified) |
| 50 to 500 | NC(CC(=O)NCCc1ccccc1F)c1ccc(C(=O)Nc2ccncc2)cc1 (stereo unspecified) |
| 50 to 500 | NC(CC(=O)NCc1cccc([N+](=O)[O-])c1)c1ccc(C(=O)Nc2ccncc2)cc1 (stereo unspecified) |
| 50 to 500 | NC(CC(=O)NCc1cccc(Cl)c1Cl)c1ccc(C(=O)Nc2ccncc2)cc1 (stereo unspecified) |
| 50 to 500 | CC[C@H](NC(=O)CC(N)c1ccc(C(=O)Nc2ccncc2)cc1)c1ccccc1 (stereo partly specified) |
